From patent publication US20240327384A1, “SALTS AND SOLID STATE FORMS OF A KIF18A INHIBITOR COMPOUND” (Amgen Inc., priority 2021, published 2024)
Values after ≈ are worked out from the molar mass of the structure shown. Where two headings read alike, the source gives them in different places. Marks after values point to notes of the source that are not given here.

What was measured:
Dog cross-over PK study = format: in vivo
Procedure: A total of 3 male dogs were initially assigned to study. All animals were fasted for at least eight hours prior to dosing and through the first four hours of blood sample collection (food was returned within 30 minutes following the collection of the last blood sample at the 4 hour collection interval, if applicable).
Each animal receiver an oral gavage dose (PO) of the appropriate test article solution containing Compound A as outlined in the following study design table. Oral gavage dosing solutions were continuously stirred throughout dosing. The gavage tubes were rinsed with approximately 10 mL of tap water following dosing (prior to removal of the gavage tube). There was a minimum of 10-day washout period between doses for each phase.

[1] = Intrinsic dissolution rate (IDR) test; format: physicochemical
[2] = Solubility and powder dissolution in FaSSGF, FaSSIF, FeSSIF, water (Example 44); format: physicochemical; conditions: for Sol (pH), Water (first value pair after FeSSIF): pH 1.14 (HCl Form 1), pH 1.08 (Variable Hydrate Form 2); for Sol (pH), Water (first value pair after FeSSIF) / Sol (pH), Water (second value pair after FeSSIF): head of medium unclear; for Sol (pH), Water (second value pair after FeSSIF): pH 1.58 (HCl Form 1), pH 1.64 (Variable Hydrate Form 2)
Procedure: Solubilities of various forms of the Compound A and the Compound A-HCl Form 1 were measured in Fasted State Simulated Gastric Fluid (FaSSGF), Fasted State Simulated Intestinal Fluid (FaSSIF), fed state simulated intestinal fluid […], and water.

[3] = Dynamic vapor sorption (moisture sorption, hygroscopicity); format: physicochemical; conditions: for DVS weight gain: by 95% RH
Procedure: Moisture sorption data was collected using a VTI SGA 100 symmetrical vapor sorption analyzer. A sample size of approximately 5 mg to 10 mg was used in a platinum pan. Hygroscopicity was evaluated from 5% RH to 95% RH in increments of 5% RH. Data for adsorption and desorption cycles were collected. […] Dynamic Vapor Sorption (DVS): Moisture sorption data was collected using a Surface Measurement Systems […] instrument. Equilibrium criteria were set at ±0.001% weight change in 10 minutes with a maximum equilibrium time of 360 minutes.

pKa of ionizable groups = format: physicochemical
Text: From high-throughput and manual polymorph screening, the present inventors generated various salts, hydrates, solvates, co-crystals of compound A; and a solid form of the Compound A, including crystalline anhydrous forms, salts, hydrates, solvates, and co-crystals thereof. […] Based on the solid-state properties of the free base forms of Compound A, and their inclinations to form solvates, the present inventors generated various salts, hydrates, solvates, and co-crystals of compound A that may be suitable for drug substance scale up and crystallization for pharmaceutical development.

KIF18A = target: T1, KIF18A (Homo sapiens, UniProt Q8NI77); assay: KIF18A ATPase inhibition; format: biochemical
T1 sequence (Q8NI77 1-898): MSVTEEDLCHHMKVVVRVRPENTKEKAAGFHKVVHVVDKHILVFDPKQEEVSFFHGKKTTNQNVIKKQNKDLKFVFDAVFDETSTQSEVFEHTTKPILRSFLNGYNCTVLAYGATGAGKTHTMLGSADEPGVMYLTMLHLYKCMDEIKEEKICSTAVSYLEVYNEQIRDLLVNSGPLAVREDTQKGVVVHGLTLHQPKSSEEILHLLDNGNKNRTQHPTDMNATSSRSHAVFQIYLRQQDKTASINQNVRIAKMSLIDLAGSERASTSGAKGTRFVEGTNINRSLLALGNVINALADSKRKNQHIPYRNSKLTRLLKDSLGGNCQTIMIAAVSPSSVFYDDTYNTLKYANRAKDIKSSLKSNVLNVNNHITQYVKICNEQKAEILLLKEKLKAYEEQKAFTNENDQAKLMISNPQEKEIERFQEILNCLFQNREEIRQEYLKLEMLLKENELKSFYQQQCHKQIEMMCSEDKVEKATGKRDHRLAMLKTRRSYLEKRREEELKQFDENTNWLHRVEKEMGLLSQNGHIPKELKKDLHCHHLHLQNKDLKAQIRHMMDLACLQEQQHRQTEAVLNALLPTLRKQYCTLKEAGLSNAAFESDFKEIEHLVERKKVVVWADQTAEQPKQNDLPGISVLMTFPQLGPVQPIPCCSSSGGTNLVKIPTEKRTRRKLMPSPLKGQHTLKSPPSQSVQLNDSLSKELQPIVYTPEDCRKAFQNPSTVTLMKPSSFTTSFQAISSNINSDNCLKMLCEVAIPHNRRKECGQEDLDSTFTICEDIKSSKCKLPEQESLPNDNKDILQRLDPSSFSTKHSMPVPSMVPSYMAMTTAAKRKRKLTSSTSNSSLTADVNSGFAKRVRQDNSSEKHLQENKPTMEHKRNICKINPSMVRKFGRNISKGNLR

[4] = Solubility in crystallization solvent 80/20 acetone/water; format: physicochemical; conditions: organic solvent or mixture; 80/20 (v/v) acetone/water, crystallization and slurry aging solvent
Procedure: The process was unseeded and crystal growth occurs during the addition of hydrochloric acid to the Compound A solution. The final slurry was aged at ambient temperature for 10 h, then cooled to 10° C. prior to wet milling. Isolation of the milled material occurred at 10° C. followed by washing of the filter cake with 8 volumes of acetone. The material was dried at 40° C. under vacuum.

[5] = Solubility and powder dissolution of salts in FaSSIF (Example 46); format: physicochemical
Text: All three salts can convert to the free base, but maintain supersaturation in FaSSIF for some time, which indicated a potential good absorption in vivo if used in a pharmaceutical dosage form.

[6] = Polymorph/salt screening: solid form stability, conversion and solubility; format: physicochemical
[7] = male dogs, fasted, PO 10 mg/kg, cross-over, listed as Amorphous Cmp A, 10 mg/kg
[8] = male dogs, fasted, PO 10 mg/kg, cross-over, listed as Cmp A-Anhydrous Form 3, 10 mg/kg
[9] = male, dog, plasma, po, 10 mg/kg, male dogs, fasted, cross-over, read-out: Tmax
[10] = male, dog, plasma, po, 10 mg/kg, male dogs, fasted, cross-over
[11] = pH 1.6, solubility from powder dissolution measurements
[12] = pH 6.5, solubility from powder dissolution measurements
[13] = pH 5.0, solubility from powder dissolution measurements

SMILES: Cc1cc(NC(=O)c2ccc(NS(=O)(=O)CCO)cc2N2CCC3(CC2)CC3)nc(N2CCC(F)(F)CC2)n1 [Amorphous Compound A]
- AUCt (Dog cross-over PK study; [7]): 237 ± 68 µM·h
- Cmax (Dog cross-over PK study; [7]): 6.9 ± 1.3 µM
- Tmax (Dog cross-over PK study; [7]): 6.7 ± 2.3 h
- IDR ([1]; listed as Amorphous Cmp A): 36.2 ug/min*cm^2

SMILES: Cc1cc(NC(=O)c2ccc(NS(=O)(=O)CCO)cc2N2CCC3(CC2)CC3)nc(N2CCC(F)(F)CC2)n1 [Anhydrous Compound A Form 3]
- AUCt (Dog cross-over PK study; [8]): 69 ± 6 µM·h
- Cmax (Dog cross-over PK study; [8]): 2.3 ± 0.2 µM
- Tmax (Dog cross-over PK study; [9]): 4.7 ± 1.2 h
- Sol (pH), FaSSGF ([2]; pH 1.6 (end of experiment), solubility from 2 hr time point): 99.3 μg/mL
- Sol (pH), FaSSIF ([2]; pH 6.5 (end of experiment), solubility from 2 hr time point): 87 μg/mL
- Sol (pH), FeSSIF ([2]; pH 5.0 (end of experiment), solubility from 2 hr time point): 352 (5.0)* μg/mL
- Sol (pH), Water ([2]; Water, pH 8.0 (end of experiment), solubility from 2 hr time point): 5.4 (8.0)* μg/mL
- DVS weight gain [3]: about 1.5%

SMILES: Cc1cc(NC(=O)c2ccc(NS(=O)(=O)CCO)cc2N2CCC3(CC2)CC3)nc(N2CCC(F)(F)CC2)n1 [Anhydrous Compound A Form 5]
- DVS observation in words [3]: rehydrated to the Compound A-Variable Hydrate Form 2

SMILES: Cc1cc(NC(=O)c2ccc(NS(=O)(=O)CCO)cc2N2CCC3(CC2)CC3)nc(N2CCC(F)(F)CC2)n1 [Compound A, 2-(6-azaspiro[2.5]octan-6-yl)-N-[2-(4,4-difluoropiperidin-1-yl)-6-methylpyrimidin-4-yl]-4-[(2-hydroxyethanesulfonyl)amino]benzamide]
- pKa (pKa of ionizable groups; read-out: weakly acidic pKa): 7.3
- pKa (pKa of ionizable groups; read-out: weakly basic pKa): 3.9
- ATPase activity inhibited (MT-ATPase vs basal ATPase) (KIF18A): inhibits MT-ATPase activity and not basal ATPase activity
- solubility [4]: ~18 mg/mL (≈ 31.9 mM)

SMILES: Cc1cc(NC(=O)c2ccc(NS(=O)(=O)CCO)cc2N2CCC3(CC2)CC3)nc(N2CCC(F)(F)CC2)n1.Cl [Compound A-HCl Form 1]
- exposure compared to Amorphous Compound A, in words (Dog cross-over PK study; dog, PO 10 mg/kg): lower exposure than the Amorphous Compound A form
- increase in exposure compared to Compound A-Anhydrous Form 3 (Dog cross-over PK study; dog, PO 10 mg/kg): ~2 fold
- AUC(0-t) (Dog cross-over PK study; [10]): 181 ± 79 µM·h
- Cmax (Dog cross-over PK study; [10]): 4.7 ± 1.4 µM
- Tmax (Dog cross-over PK study; [9]): 6 h
- Sol (pH), FaSSIF ([5]; pH 6.5): 104.2 (6.5) μg/mL
- powder dissolution compared with other forms, in words [2]: faster dissolution than the Compound A-Variable-Hydrate Form 2, or Compound A-Anhydrous Form 3, but a slower dissolution than the Amorphous Compound A
- Sol (pH), FaSSGF [2, 11]: 6.3 ± 0.5 μg/mL
- Sol (pH), FaSSIF [2, 12]: 62.7 ± 9.0 μg/mL
- Sol (pH), FeSSIF [2, 13]: 437.1 ± 16.3 (5.0)^ μg/mL
- Sol (pH), Water (first value pair after FeSSIF) [2]: 7.9 μg/mL
- Sol (pH), Water (second value pair after FeSSIF) [2]: 13 μg/mL
- DVS weight gain [3]: less than 0.5%
- IDR [1]: 2.14 ug/min*cm^2
- solubility [4]: ~8 mg/mL

SMILES: Cc1cc(NC(=O)c2ccc(NS(=O)(=O)CCO)cc2N2CCC3(CC2)CC3)nc(N2CCC(F)(F)CC2)n1 [Compound A-MsA Form 1]
- kinetic solubility, dissolution rate and supersaturation in FaSSIF, in words ([5]; listed as Mesylate (A-MsA or A-MSA) Salt Form 1): better than the HCl Salt Form 1
- Sol (pH), FaSSIF ([5]; pH 6.5, listed as Cmp A-MSA Form 1): 133.0 (6.5) μg/mL
- DVS weight gain ([3]; listed as Crystalline Compound A-MsA Form 1): about 1.2%
- DVS weight gain ([3]; listed as crystalline Compound A-MsA Salt Form 1): less than 1.2%

SMILES: Cc1cc(NC(=O)c2ccc(NS(=O)(=O)CCO)cc2N2CCC3(CC2)CC3)nc(N2CCC(F)(F)CC2)n1 [Compound A-Sulfate Form 1]
- DVS observation in words ([3]; listed as Crystalline Compound A-Sulfate Form 1): deliquesces at 90% RH

SMILES: Cc1cc(NC(=O)c2ccc(NS(=O)(=O)CCO)cc2N2CCC3(CC2)CC3)nc(N2CCC(F)(F)CC2)n1 [Compound A-TsA Form 4]
- kinetic solubility, dissolution rate and supersaturation in FaSSIF, in words ([5]; listed as Tosylate (A-TsA or A-TSA) Salt Form 4): better than the Mesylate (A-MsA or A-MSA) Salt Form 1
- Sol (pH), FaSSIF ([5]; pH 6.5, listed as Cmp A-TSA Form 4): 160.6 (6.5) μg/mL

SMILES: Cc1cc(NC(=O)c2ccc(NS(=O)(=O)CCO)cc2N2CCC3(CC2)CC3)nc(N2CCC(F)(F)CC2)n1 [Compound A-Variable Hydrate Form 2]
- solubility, in words [6]: very low solubility
- Sol (pH), FaSSGF [2, 11]: 20 μg/mL
- Sol (pH), FaSSIF [2, 12]: 10.6 μg/mL
- Sol (pH), FeSSIF [2, 13]: 144.5(5.0)^ μg/mL
- Sol (pH), Water (first value pair after FeSSIF) [2]: 243 μg/mL
- Sol (pH), Water (second value pair after FeSSIF) [2]: 23 μg/mL
- DVS weight gain [3]: about 3.4%
- IDR ([1]; listed as Cmp A-Variable Hydrate Form 2): 0.42 ug/min*cm^2
